Ends that are not written are not given here.
Legend:
bacterial chaperone DnaK = biological target: T1, bacterial chaperone DnaK (Escherichia coli, UniProt P0A6Y8); test: FRET assay, DnaK-binding (fluorescence quenching with DnaK-BHQ10); conditions: for maximum quenching effect: n = 3; for Kd: N-terminal 5(6)-carboxyfluorescein, C-terminal amide, quenching assay, non-linear regression (SlideWrite v7.01)
T1 construct: made in house
Method: Lser-stomoxyn, Lser-PRP2, and Lser-PRP3 were synthesized by PANATecs (Tübingen, Germany) at >95% purity with C-terminal amidation (Table 1). For the quenching assay, Lser-PRP2 and Lser-PRP3 were synthesized with N-terminal 5(6)-carboxyfluorescein and C-terminal amidation. DnaK was produced by Michael Zahn ([Knappe et al., 2011]). The Black Hole Quencher 10 succinimidyl ester (BHQ10-NHS ester, > 75% purity) was purchased from BioCat (Heidelberg, Germany).
DnaK (2 mg/ml) was dialyzed against the modifying buffer (20 mM Na2HPO4, 20 mM KH2PO4, 5 mM MgCl2, 150 mM KCl; pH 7.4) before labeling with a 10-fold molar excess of BHQ10-NHS ester ([Kreisig et al., 2011]; [Dobslaff et al., 2012]). Excess BHQ10 was removed by further dialysis and the final DnaK concentration was adjusted to […]. To evaluate the labeling efficiency, we measured BHQ10 absorption at 515 nm, and calculated the ratio of dye to protein (mean labeling degree, nine BHQ10 molecules per DnaK).
We mixed 50 μl of the fluorescein-modified peptides (1.3 nM) with 50 μl of a 1:4 serial dilution series of DnaK-BHQ10 in modification buffer (0.8–13,000 nM) in a solid black 384-well plate and incubated the plates for 2 h as previously described ([Dobslaff et al., 2012]). To calculate the quenching effect, control mixtures (50 μl of the peptide solution and 50 μl of the modification buffer) were recorded five times. We recorded the fluorescence intensity on a Paradigm fluorescence reader using a fluorescence (fluo-rhod) detection cartridge (excitation wavelength = 485 ± 10 nm, emission wavelength = 535 ± 12.5 nm, integration time = 140 ms). The quenching effect was expressed as the percentage of the fluorescence intensity of the control quenched after the addition of DnaK-BHQ10.
Dissociation constants (Kd) were determined using SlideWrite v7.01. The quenching effects were plotted against the DnaK concentration (logarithmic abscissa). Kd values were calculated by non-linear regression using the dose–response logistical transition function of the program [y = a 0 + a 1/(1 + x/a 2) a3].

[1] = test system: E. coli JM83 cells carrying plasmid pCH110; test: Bacterial membrane permeabilization assay (β-galactosidase release); type: cell-based
Method: We tested the activity of the L. sericata AMPs against E. coli JM83, carrying plasmid pCH110 (Pharmacia-Amersham, Piscatway, NJ, USA).
Membrane permeabilization was quantified by measuring the activity of β-galactosidase released from E. coli JM83 cells carrying plasmid pCH110, which encodes a constitutive, cytoplasmic form of the enzyme ([Zdybicka-Barabas et al., 2013]). The peptides were pre-incubated for 15 min at 37°C in 23 μl 20 mM phosphate buffer (pH 6.8) before adding 2 μl of a suspension of mid-logarithmic phase E. coli cells (5 × 10^5 colony forming units, prepared in the same buffer). The final AMP concentrations were 0.0625–2 µM Lser-stomoxyn and up to 50 µM for the Lser-PRPs ([Pöppel et al., 2015]; [Hirsch et al., 2019]). After incubation for 45 min at 37°C, we added 220 μl 20 mM HEPES/150 mM NaCl (pH 7.5) and 5 μl 50 mM p-nitrophenyl-β-D-galactopyranoside. We incubated the samples at 37°C for a further 90 min and then measured the absorbance at 405 nm, which is proportional to the amount of released β-galactosidase. Live bacteria incubated in growth medium as well as dead bacteria after treatment with 5 µM synthetic cecropin B (Sigma-Aldrich) served as control samples. We set the perforation level of dead bacteria to 100%. All assays were performed six times in triplicate for each type of sample.

E. coli JM83 = test: Atomic force microscopy of bacterial cell surface; type: cell-based; conditions: 90 min at 37°C
Method: Bacterial samples were prepared for atomic force microscopy (AFM) as previously described ([Zdybicka-Barabas et al., 2012]; [Zdybicka-Barabas et al., 2013]). Briefly, log-phase E. coli JM83 cells (OD600 = 0.2) in 100 µL lysogeny broth were incubated at 37°C for 90 min in the presence of individual or combined AMPs, or without AMPs as a negative control. We used concentrations of 50 μM Lser-PRP2, 50 μM Lser-PRP3, and 0.25 μM Lser-stomoxyn. The samples were centrifuged (8,000 × g, 4°C, 10 min), washed twice with apyrogenic water, resuspended in 5 μl apyrogenic water, applied to mica disks and allowed to dry at 28°C overnight.
The cell surface was imaged using a NanoScope V AFM (Veeco, Plainview, NY, USA) in Peak Force QNM operation mode and a silicon tip NSG 30 with a spring constant of 20 N/m (NT-MDT, Moscow, Russian Federation). The results were processed using Nanoscope Analysis v1.40 (Veeco). Three fields on each mica disk were imaged. The roughness values were measured over the entire bacterial cell surface in 3 × 3 µm areas. The average surface root mean square (RMS) roughness was calculated from 25 fields (300 × 300 nm). Section profiles and 3D images were produced using WSxM v5.0 ([Horcas et al., 2007]).

[2] = test system: panel of 114 multi-drug resistant clinical isolates; design: method as in Hirsch et al., 2019; conditions: ref Hirsch et al., 2019; cited from earlier work
Gram-negative bacteria = conditions: ref Pöppel et al., 2015; Hirsch et al., 2019; cited from earlier work
Description: Several previous investigations have addressed the AMP repertoire of L. sericata. […] More recent studies have characterized the defensin-family AMP lucifensin ([Andersen et al., 2010]; [Čeřovský et al., 2010]; [Čeřovský et al., 2011]) and the antifungal AMP lucimycin ([P ...

[3] = Figure 2 legend, N-terminal 5(6)-carboxyfluorescein peptide, DnaK-BHQ10
[4] = N-terminal 5(6)-carboxyfluorescein peptide (1.3 nM) + DnaK-BHQ10 (0.8–13,000 nM), 2 h, 384-well, pH 7.4, sigmoidal curve

T1 sequence (P0A6Y8 whole entry): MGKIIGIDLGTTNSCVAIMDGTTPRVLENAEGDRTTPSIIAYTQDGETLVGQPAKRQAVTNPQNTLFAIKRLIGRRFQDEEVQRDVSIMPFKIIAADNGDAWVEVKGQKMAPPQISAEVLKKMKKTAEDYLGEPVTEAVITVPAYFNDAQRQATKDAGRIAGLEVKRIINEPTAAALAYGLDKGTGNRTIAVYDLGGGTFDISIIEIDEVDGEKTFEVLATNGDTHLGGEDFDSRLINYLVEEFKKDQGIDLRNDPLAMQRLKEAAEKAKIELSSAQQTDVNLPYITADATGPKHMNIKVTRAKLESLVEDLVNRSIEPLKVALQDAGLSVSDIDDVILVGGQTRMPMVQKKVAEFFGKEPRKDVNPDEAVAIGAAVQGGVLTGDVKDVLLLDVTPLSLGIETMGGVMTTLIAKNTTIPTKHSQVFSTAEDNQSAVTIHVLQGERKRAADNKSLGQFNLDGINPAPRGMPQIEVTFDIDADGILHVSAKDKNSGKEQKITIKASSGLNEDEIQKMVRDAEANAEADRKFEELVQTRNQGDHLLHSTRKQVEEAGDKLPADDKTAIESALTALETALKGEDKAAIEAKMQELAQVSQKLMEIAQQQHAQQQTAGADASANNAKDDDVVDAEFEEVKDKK

Substance	maximum quenching effect (bacterial chaperone DnaK; [3])	maximum quenching effect (bacterial chaperone DnaK; [4])	Kd (bacterial chaperone DnaK)	bacterial membrane permeabilization ([1]; 0.25 µM, abstract)	bacterial membrane permeabilization ([1]; 1 µM, 45 min at 37°C, bacteria killed by 5 µM cecropin B = 100%, n = 6)	bacterial membrane permeabilization ([1]; 2 µM, 45 min at 37°C, bacteria killed by 5 µM cecropin B = 100%, n = 6)	bacterial membrane permeabilization ([1]; 0.0625 or 0.125 µM, 45 min at 37°C, 20 mM phosphate pH 6.8, n = 6)	bacterial membrane permeabilization ([1]; 0.25–0.5 µM, 45 min at 37°C, bacteria killed by 5 µM cecropin B = 100%, n = 6)	Adhesion forces (E. coli JM83; 0.25 µM, mean ± SD of 25 fields, control 0.174 (± 0.04), ***p ≤ 0.001 vs control, letter a: differs from combination)	Roughness (E. coli JM83; 0.25 µM, mean ± SD of 25 fields, control 0.843 (± 0.22), ***p ≤ 0.001 vs control, letter b: differs from combination)	Young's modulus (E. coli JM83; 0.25 µM, mean ± SD of 25 fields, control 2458 (± 24.52), **p ≤ 0.01 vs control)	flagella (E. coli JM83; Lser-stomoxyn 0.25 µM alone)	cell surface granularity vs controls (E. coli JM83; Lser-stomoxyn 0.25 µM or Lser-PRP2 50 µM alone)	activity against clinical isolates [2]	antibacterial activity (Gram-negative bacteria)
EWRPHGSIGGSGLRPGRPQTLPPQRPRRPDFNGPRHRF-NH2 [Lser-PRP2]	> 80%	85–88%	140 ± 10 nM	–	–	–	–	–	–	–	–	–	–	–	–
GFRKRFNKLVKKVKHTIKETANVSKDVAIVAGSGVAVGAAMG [Lser-Stomoxyn, Lucilia sericata canonical α-helical antimicrobial peptide, synthesized at >95% purity with C-terminal amidation]	–	–	–	1%	12%	40%	little evidence of permeabilization	1–2%	0.236 (± 0.079)^a*** nN	1.102 (± 0.373)^b*** nm	2601 (± 32.19)** MPa	lost their flagella	considerably more granular than that of the controls	showed activity against clinical isolates of E. coli, Enterobacter spp., Klebsiella spp., Salmonella enterica, Citrobacter freundii, and Acinetobacter spp., as well as multiple isolates of P. aeruginosa	particularly active against Gram-negative bacteria
SPFVDRPRRPIQHNGPKPRIITNPPFNPNARPAW-NH2 [Lser-PRP3]	> 80%	85–88%	300 ± 6 nM	–	–	–	–	–	–	–	–	–	–	–	–

Reference: PMC7194015, “Proline-Rich Antimicrobial Peptides in Medicinal Maggots of Lucilia sericata Interact With Bacterial DnaK But Do Not Inhibit Protein Synthesis” (Frontiers in Pharmacology, 2020)
